Tests used:
[1] = tested on: VSV-SARS-CoV-2 (SARS-CoV-2 spike pseudotyped VSV); format: cell-based
[2] = tested on: UV-inactivated SARS-CoV-2 virions; format: binding
[3] = target: T1, SARS-CoV-2 spike S1 subunit (Severe acute respiratory syndrome coronavirus 2, UniProt P0DTC2); format: binding
T1 construct: 50 μL of S1-subunit protein solution (0.1 mg·mL^−1, Genscript Z03501); purchased Genscript Z03501

SARS-CoV-2 S1 subunit = target: T2, SARS-CoV-2 S1 subunit (Severe acute respiratory syndrome coronavirus 2, UniProt P0DTC2); test: biochemical; format: binding
T2 construct: 50 μL of S1-subunit protein solution (0.1 mg·mL^−1, Genscript Z03501); purchased Genscript Z03501

Row | Structure (SMILES) | reduction of VSV-SARS-CoV-2 infectivity [1] | reduction in the binding frequency (BF) [2] | binding probability (BP) in competition assay [3] | Kd (SARS-CoV-2 S1 subunit) [µM] | kon (SARS-CoV-2 S1 subunit; read-out: association rate (kon)) [M⁻¹ s⁻¹]
1 | CC(=O)N[C@H]1[C@H]([C@H](O)[C@H](O)COC(C)=O)OC(O)(C(=O)O)C[C@@H]1O (some centres unmarked) [Compound 9-AcSA, 9-O-acetyl-sialic acid] | did not significantly reduce | – | – | – | –
2 | CC(=O)N[C@H]1C([C@H](O)[C@H](O)COC(C)=O)O[C@](O)(C(=O)O)C[C@H]1O (some centres unmarked) [Compound 9-AcSA, 9-O-acetyl-sialic acid] | – | 20-30% | significantly lower binding probability | 5.7 ± 5 | 42000
